≈ marks a conversion by molar mass, not a printed value. Where “and” joins values, the source holds several entries; their conditions need not be identical. Identical values can stand only once. Like-named read-outs stand apart in the source and are kept apart here.
Legend:
[1] = test system: M. avium clinical isolate Koav 19 (WT); assay: microbe, parasite or virus in culture; type: cell-based; details: Koav 19 (K 19), WT
[2] = test system: M. avium clinical isolate Koav 11 (GyrA Asp95Tyr); type: cell-based, M. avium subsp. hominissuis
[3] = test system: M. avium clinical isolate Koav 20 (WT); assay: microbe, parasite or virus in culture; type: cell-based; details: Koav 20 (K 20), WT; for MIC: Mycobacterium avium
[4] = test system: M. avium clinical isolate Koav 13 (GyrA Asp95Gly); type: cell-based, M. avium subsp. hominissuis
[5] = test system: M. avium clinical isolate Koav 2 (WT); assay: microbe, parasite or virus in culture; type: cell-based; details: Mycobacterium avium, drug alone, day 14
[6] = test system: M. avium clinical isolate Koav 15 (WT); assay: microbe, parasite or virus in culture; type: cell-based; details: Koav 15 (K 15), WT
[7] = test system: M. avium clinical isolate Koav 20 (WT); assay: microbe, parasite or virus in culture; type: cell-based; details: Mycobacterium avium
[8] = test system: M. avium clinical isolate Koav 21 (WT); assay: microbe, parasite or virus in culture; type: cell-based; details: Mycobacterium avium
[9] = test system: M. avium clinical isolate Koav 3 (GyrA Asp95Gly); type: cell-based, M. avium subsp. hominissuis
[10] = test system: M. avium clinical isolate Koav 19 (WT); assay: microbe, parasite or virus in culture; type: cell-based; details: Mycobacterium avium
[11] = test system: M. avium clinical isolate Koav 21 (WT); assay: microbe, parasite or virus in culture; type: cell-based; details: Koav 21 (K 21), WT; for MIC: Mycobacterium avium
[12] = test system: M. avium clinical isolate Koav 3 (GyrA Asp95Gly); type: cell-based, M. avium subsp. hominissuis; remark: listed apart in the source
[13] = test system: M. avium clinical isolate Koav 1 (WT); assay: microbe, parasite or virus in culture; type: cell-based; details: Koav 1 (K 1), WT; for MIC: Mycobacterium avium
[14] = test system: M. avium clinical isolate Koav 11 (GyrA Asp95Tyr); type: cell-based, M. avium subsp. hominissuis; remark: listed apart in the source
[15] = test system: M. avium clinical isolate Cl-A-2 (GyrA Asp95Tyr); type: cell-based, M. avium subsp. hominissuis
[16] = test system: M. avium clinical isolate Koav 1 (WT); assay: microbe, parasite or virus in culture; type: cell-based; details: Mycobacterium avium
[17] = test system: M. avium clinical isolates; type: cell-based, M. avium subsp. hominissuis; details: for range of mean FICIms: over isolates, WQ-3810 and MXF together
[18] = test system: M. avium clinical isolates; type: cell-based, M. avium subsp. hominissuis
[19] = test system: M. avium clinical isolate Koav 2 (WT); assay: microbe, parasite or virus in culture; type: cell-based; details: Koav 2 (K 2), WT; for MIC: Mycobacterium avium
[20] = test system: M. avium clinical isolate Koav 13 (GyrA Asp95Gly); type: cell-based, M. avium subsp. hominissuis; remark: listed apart in the source
[21] = test system: M. avium clinical isolate Koav 15 (WT); assay: microbe, parasite or virus in culture; type: cell-based; details: Mycobacterium avium
[22] = test system: M. avium clinical isolate Cl-A-2 (GyrA Asp95Tyr); type: cell-based, M. avium subsp. hominissuis; remark: listed apart in the source
[23] = test system: M. avium clinical isolate Koav 25 (WT); assay: microbe, parasite or virus in culture; type: cell-based; details: Koav 25 (K 25), WT; for MIC: Mycobacterium avium
[24] = checkerboard, single replicates
[25] = Mycobacterium avium, checkerboard, single replicates, read-out: MIC of drug alone
[26] = checkerboard (with 1 µg/ml INH)
[27] = checkerboard (with 1 µg/ml INH), read-out: MIC of FQ with INH
[28] = checkerboard, single replicates, read-out: MIC of drug alone
[29] = drug alone, day 14, read-out: MIC
[30] = checkerboard (S2: with 1 µg/ml EMB), read-out: MIC of FQ with EMB
[31] = FQ-resistant isolates, MIC assay

With `Cc1c(N2CC(N(C)C)C2)c(F)cc2c(=O)c(C(=O)O)cn(-c3nc(N)c(F)cc3F)c12` [WQ-3810] the “mean FICIm” value ([1]; FQ with EMB) was 0.85, the “mean FICIm” value ([1]; FQ with INH) was 0.45 and 0.46 and the FICIm ([1]; FQ+EMB, single replicates) was 1 and 0.625. For the same compound, the FICIm ([1]; FQ+INH, single replicates) was 0.5312 and 0.5 and 0.375, the “MIC of drug alone” value [1, 24] was 0.5 µg/mL and the MIC [1, 25] was 0.25 µg/mL. For the same compound, the MIC [2] was 4 µg/mL (≈ 8.94 µM), the “MIC with 1 µg/mL EMB” value [2] was 4 (×1) µg/mL and the “MIC with 1 µg/mL INH” value [2] was 4 (×1) µg/mL. For the same compound, the “mean FICIm” value ([3]; FQ with EMB) was 0.66, the “mean FICIm” value ([3]; FQ with INH) was 0.25 and the FICIm ([3]; FQ+EMB, single replicates) was 0.625 and 0.75. The FICIm ([3]; FQ+INH, single replicates) was 0.25, the “MIC of FQ with INH” value [3, 26] was 0.0625 µg/mL and the “MIC of drug alone” value [3, 24] was 0.5 µg/mL. The MIC [3, 27] was 0.0312 µg/mL, the MIC [3, 28] was 0.25 µg/mL and the MIC [4] was 8 µg/mL (≈ 17.9 µM). The “MIC with 1 µg/mL EMB” value [4] was 4 (×0.5) µg/mL, the “MIC with 1 µg/mL INH” value [4] was 4 (×0.5) µg/mL and the MIC [5] was 0.5 µg/mL (≈ 1.12 µM). The “mean FICIm” value ([6]; FQ with EMB) was 0.71, the “mean FICIm” value ([6]; FQ with INH) was 0.33 and the FICIm ([6]; FQ+EMB, single replicates) was 0.75 and 0.625. The FICIm ([6]; FQ+INH, single replicates) was 0.25 and 0.5 and 0.2812, the MIC [6, 25] was 1 µg/mL and the MIC [7, 29] was 0.125 µg/mL (≈ 0.279 µM). For the same compound, the MIC ([7]; read-out: MIC with 1 µg/mL EMB) was 0.13 µg/mL (≈ 0.291 µM), the MIC ([7]; read-out: MIC with 1 µg/mL INH) was 0.13 µg/mL (≈ 0.291 µM) and the MIC [8, 29] was 1 µg/mL (≈ 2.24 µM). It also gave an MIC ([8]; read-out: MIC with 1 µg/mL EMB) of 1 µg/mL (≈ 2.24 µM), an MIC ([8]; read-out: MIC with 1 µg/mL INH) of 1 µg/mL (≈ 2.24 µM) and an MIC [9] of 4 µg/mL (≈ 8.94 µM). The “MIC with 1 µg/mL EMB” value [9] was 4 (×1) µg/mL, the “MIC with 1 µg/mL INH” value [9] was 2 (×0.5) µg/mL and the MIC [10, 29] was 0.5 µg/mL (≈ 1.12 µM). The MIC ([10]; read-out: MIC with 1 µg/mL EMB) was 0.25 µg/mL (≈ 0.559 µM), the MIC ([10]; read-out: MIC with 1 µg/mL INH) was 0.13 µg/mL (≈ 0.291 µM) and the “mean FICIm” value ([11]; FQ with EMB) was 0.75. For the same compound, the “mean FICIm” value ([11]; FQ with INH) was 0.41, the FICIm ([11]; FQ+EMB, single replicates) was 0.75 and the FICIm ([11]; FQ+INH, single replicates) was 0.375 and 0.5312. The “MIC of FQ with INH” value [11, 26] was 1 µg/mL, the MIC [11, 30] was 0.5 µg/mL and the MIC [11, 27] was 0.5 µg/mL. For the same compound, the MIC [11, 28] was 2 µg/mL, the FICIm [12] was 0.75 and the “MIC of FQ with EMB” value [12] was 1 µg/mL and 2 µg/mL. The “MIC of FQ with INH” value [12] was 1 µg/mL and 2 µg/mL, the “MIC of drug alone” value [12] was 4 µg/mL and the “mean FICIm” value [12] was 0.71 and 0.75. The “mean FICIm” value ([13]; FQ with EMB) was 0.62, the “mean FICIm” value ([13]; FQ with INH) was 0.45 and the FICIm ([13]; FQ+EMB, single replicates) was 0.625 and 0.5 and 0.75. For the same compound, the FICIm ([13]; FQ+INH, single replicates) was 0.5 and 0.375, the “MIC of drug alone” value [13, 24] was 0.25 µg/mL and the MIC [13, 27] was 0.0312 µg/mL. The MIC [13, 28] was 0.125 µg/mL, the “MIC of FQ with EMB” value [14] was 2 µg/mL and the “MIC of FQ with INH” value [14] was 1 µg/mL and 0.5 µg/mL. For the same compound, the “MIC of drug alone” value [14] was 4 µg/mL, the “mean FICIm” value [14] was 0.46 and 0.83 and the “MIC of FQ with EMB” value [15] was 1 µg/mL and 0.5 µg/mL. The “MIC of FQ with INH” value [15] was 0.5 µg/mL and 0.25 µg/mL, the “mean FICIm” value [15] was 0.53 and 0.66 and the MIC [16, 29] was 0.125 µg/mL (≈ 0.279 µM). For the same compound, the MIC ([16]; read-out: MIC with 1 µg/mL EMB) was 0.01 µg/mL (≈ 0.0224 µM), the MIC ([16]; read-out: MIC with 1 µg/mL INH) was 0.03 µg/mL (≈ 0.0671 µM) and the interaction ([17]; in combination with EMB, mean FICIm between 0.5 and 1 additive) was “additive”. For the same compound, the interaction ([17]; in combination with INH, FICIm ≤ 0.5 regarded as synergistic) was “synergistic”, the “range of mean FICIms” value ([17]; with EMB) was 0.41 to 0.91 and the “range of mean FICIms” value ([17]; with INH) was 0.19 to 0.71. The MIC range [18] was 4 to 8 µg/mL, the “higher antimicrobial activity than CIP” value [18, 31] was 4 to 8 fold and the “higher antimicrobial activity than LVX” value [18, 31] was 2 to 16 fold. For the same compound, the “higher antimicrobial activity than MXF” value [18, 31] was 2 to 4 fold, the MIC range ([18]; WT isolates) was 0.125 to 1 µg/mL and the “mean FICIm” value ([19]; FQ with EMB) was 0.91. For the same compound, the “mean FICIm” value ([19]; FQ with INH) was 0.25, the FICIm ([19]; FQ+EMB, single replicates) was 0.75 and 1 and the FICIm ([19]; FQ+INH, single replicates) was 0.25. For the same compound, the “MIC of FQ with EMB” value ([19]; checkerboard (S2: with 1 µg/ml EMB)) was 0.25 µg/mL, the MIC [19, 30] was 0.125 µg/mL and the MIC [19, 27] was 0.0625 µg/mL. The MIC [19, 28] was 0.5 µg/mL, the “MIC of FQ with EMB” value [20] was 4 µg/mL and 2 µg/mL and the “MIC of drug alone” value [20] was 8 µg/mL and 4 µg/mL. For the same compound, the MIC [21, 29] was 1 µg/mL (≈ 2.24 µM), the MIC ([21]; read-out: MIC with 1 µg/mL EMB) was 1 µg/mL (≈ 2.24 µM) and the MIC ([21]; read-out: MIC with 1 µg/mL INH) was 1 µg/mL (≈ 2.24 µM). For the same compound, the MIC [22] was 4 µg/mL (≈ 8.94 µM), the “MIC with 1 µg/mL EMB” value [22] was 1 (×0.25) µg/mL and the “MIC with 1 µg/mL INH” value [22] was 1(×0.25) µg/mL. For the same compound, the “mean FICIm” value ([23]; FQ with EMB) was 0.75, the “mean FICIm” value ([23]; FQ with INH) was 0.39 and the FICIm ([23]; FQ+EMB, single replicates) was 0.75. The FICIm ([23]; FQ+INH, single replicates) was 0.5 and 0.375 and 0.3125, the “FIC of FQ” value ([23]; pair with EMB) was 0.25 µg/mL and the MIC [23, 30] was 0.25 µg/mL. The MIC [23, 28] was 1 µg/mL.

Source: PMC12291913 (Antibiotics, 2025)
